Experimental data as given in patent US20240245682A1, “ALPHA-V-BETA-8 INTEGRIN INHIBITORS AND USES THEREOF” (Pliant Therapeutics, Inc., priority 2022, published 2024).

Key:
Test in all cases: AlphaScreen proximity-based integrin binding assay with TGF-b1 LAP
Conditions in all cases: values given as ranges
human integrin αVβ6 = human integrin αVβ6 (Homo sapiens, UniProt P06756+P18564)
Summary of the method: (§1)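 Purified human integrin incubated with compound, TGF-b1 LAP, biotinylated anti-LAP antibody and acceptor beads for 2 h, then streptavidin donor beads 30 min, room temperature, in 50 mM Tris-HCl pH 7.5, 0.1% BSA, 1 mM CaCl2/MgCl2. AlphaScreen signal (680 nm excitation, 520-620 nm emission); IC50 by four-parameter fit.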

human integrin αVβ8 = human integrin αVβ8 (Homo sapiens, UniProt P06756+P26012)
Summary of the method: as §1

human integrin αVβ1 = human integrin αVβ1 (Homo sapiens, UniProt P05556+P06756)
Summary of the method: as §1

Sequence of human integrin αVβ8 (P06756 31-992 limits assumed): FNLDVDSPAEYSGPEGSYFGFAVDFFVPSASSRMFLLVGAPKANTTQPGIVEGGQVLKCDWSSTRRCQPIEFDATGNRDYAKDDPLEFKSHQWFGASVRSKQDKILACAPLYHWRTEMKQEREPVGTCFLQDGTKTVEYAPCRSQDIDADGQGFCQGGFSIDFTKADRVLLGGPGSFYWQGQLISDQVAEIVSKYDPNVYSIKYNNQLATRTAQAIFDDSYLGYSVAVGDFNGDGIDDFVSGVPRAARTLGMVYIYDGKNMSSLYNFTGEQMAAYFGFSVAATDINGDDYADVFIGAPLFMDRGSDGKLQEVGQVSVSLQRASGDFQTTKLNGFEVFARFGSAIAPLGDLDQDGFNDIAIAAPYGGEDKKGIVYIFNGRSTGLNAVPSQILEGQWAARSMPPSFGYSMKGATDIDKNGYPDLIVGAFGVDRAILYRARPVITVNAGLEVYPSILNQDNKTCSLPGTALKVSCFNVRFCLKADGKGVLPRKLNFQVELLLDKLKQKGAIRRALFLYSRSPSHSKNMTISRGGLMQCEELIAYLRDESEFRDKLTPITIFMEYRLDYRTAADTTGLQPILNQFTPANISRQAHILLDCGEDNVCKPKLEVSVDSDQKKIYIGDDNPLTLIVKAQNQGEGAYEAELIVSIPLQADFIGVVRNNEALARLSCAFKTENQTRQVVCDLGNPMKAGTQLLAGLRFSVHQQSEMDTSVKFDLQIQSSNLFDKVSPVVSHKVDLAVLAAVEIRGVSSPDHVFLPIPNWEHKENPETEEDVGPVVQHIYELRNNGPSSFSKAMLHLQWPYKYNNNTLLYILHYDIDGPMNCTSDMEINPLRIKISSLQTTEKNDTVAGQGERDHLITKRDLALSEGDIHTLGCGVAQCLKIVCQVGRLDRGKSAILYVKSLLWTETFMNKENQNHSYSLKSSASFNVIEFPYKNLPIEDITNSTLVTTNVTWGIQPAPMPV
Sequence of human integrin αVβ8 (P26012 43-684 limits assumed): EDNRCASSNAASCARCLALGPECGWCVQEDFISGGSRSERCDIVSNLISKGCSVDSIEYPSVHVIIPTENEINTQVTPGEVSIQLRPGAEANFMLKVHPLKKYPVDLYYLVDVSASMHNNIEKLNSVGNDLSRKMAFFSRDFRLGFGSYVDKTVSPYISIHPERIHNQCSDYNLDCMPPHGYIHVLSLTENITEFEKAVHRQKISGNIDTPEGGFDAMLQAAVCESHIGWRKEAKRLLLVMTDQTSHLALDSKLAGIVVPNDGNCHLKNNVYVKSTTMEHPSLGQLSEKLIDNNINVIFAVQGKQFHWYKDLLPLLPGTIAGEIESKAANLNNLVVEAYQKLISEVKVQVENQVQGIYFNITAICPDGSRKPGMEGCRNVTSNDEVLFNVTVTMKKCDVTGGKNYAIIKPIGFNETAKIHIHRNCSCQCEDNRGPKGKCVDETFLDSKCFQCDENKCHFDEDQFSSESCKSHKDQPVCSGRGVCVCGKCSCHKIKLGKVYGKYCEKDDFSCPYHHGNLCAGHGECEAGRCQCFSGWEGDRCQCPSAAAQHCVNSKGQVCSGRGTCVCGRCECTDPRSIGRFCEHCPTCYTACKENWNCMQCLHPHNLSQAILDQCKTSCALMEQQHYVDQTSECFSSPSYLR
Sequence of human integrin αVβ6 (P06756 31-992 limits assumed): as the sequence (P06756 31-992 limits assumed) above
Sequence of human integrin αVβ6 (P18564 22-707 limits assumed): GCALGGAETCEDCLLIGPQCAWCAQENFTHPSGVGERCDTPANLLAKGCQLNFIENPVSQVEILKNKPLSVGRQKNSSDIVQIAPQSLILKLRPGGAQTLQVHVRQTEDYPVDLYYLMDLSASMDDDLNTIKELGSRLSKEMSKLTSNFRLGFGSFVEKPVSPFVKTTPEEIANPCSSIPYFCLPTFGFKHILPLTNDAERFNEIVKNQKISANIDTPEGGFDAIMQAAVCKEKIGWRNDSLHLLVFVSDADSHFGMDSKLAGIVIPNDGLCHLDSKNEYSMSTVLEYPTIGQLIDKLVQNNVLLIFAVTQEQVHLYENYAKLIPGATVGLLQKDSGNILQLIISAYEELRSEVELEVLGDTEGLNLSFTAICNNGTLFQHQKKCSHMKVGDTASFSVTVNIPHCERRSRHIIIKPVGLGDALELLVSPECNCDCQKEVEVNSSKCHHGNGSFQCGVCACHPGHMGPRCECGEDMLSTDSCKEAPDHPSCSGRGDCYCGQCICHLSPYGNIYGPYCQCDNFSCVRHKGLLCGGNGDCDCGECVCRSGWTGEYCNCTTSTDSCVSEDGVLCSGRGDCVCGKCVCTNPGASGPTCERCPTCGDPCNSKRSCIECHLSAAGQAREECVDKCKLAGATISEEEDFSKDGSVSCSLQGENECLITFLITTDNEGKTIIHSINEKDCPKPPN
Sequence of human integrin αVβ1 (P06756 31-992 limits assumed): as the sequence (P06756 31-992 limits assumed) above
Sequence of human integrin αVβ1 (P05556 21-728 limits assumed): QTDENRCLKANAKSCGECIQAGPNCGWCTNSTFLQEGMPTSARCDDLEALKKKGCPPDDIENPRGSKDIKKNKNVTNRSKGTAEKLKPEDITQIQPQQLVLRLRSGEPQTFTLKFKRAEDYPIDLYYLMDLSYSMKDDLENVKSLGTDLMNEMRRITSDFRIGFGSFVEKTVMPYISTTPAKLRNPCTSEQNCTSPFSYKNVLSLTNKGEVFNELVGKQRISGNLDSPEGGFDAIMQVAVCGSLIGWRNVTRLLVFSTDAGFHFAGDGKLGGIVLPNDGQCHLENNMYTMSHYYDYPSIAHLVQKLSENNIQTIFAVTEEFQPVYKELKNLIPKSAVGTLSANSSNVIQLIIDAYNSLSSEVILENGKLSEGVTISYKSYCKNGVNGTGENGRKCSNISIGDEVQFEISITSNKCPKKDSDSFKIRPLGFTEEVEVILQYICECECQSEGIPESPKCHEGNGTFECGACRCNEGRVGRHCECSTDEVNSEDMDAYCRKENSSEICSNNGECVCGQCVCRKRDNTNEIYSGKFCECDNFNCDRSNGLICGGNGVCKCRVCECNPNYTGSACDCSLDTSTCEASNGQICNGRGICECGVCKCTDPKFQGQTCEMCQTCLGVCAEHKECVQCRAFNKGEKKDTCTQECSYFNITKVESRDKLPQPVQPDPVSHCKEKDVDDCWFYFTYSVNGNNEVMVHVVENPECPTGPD

| SMILES | IC50 (human integrin αVβ6) [nM] | IC50 (human integrin αVβ8) [nM] | IC50 (human integrin αVβ1) [nM] |
| --- | --- | --- | --- |
| O=C(O)[C@H](CCOCCCCc1ccc2c(n1)NCCC2)NC(=O)C1(c2ccccc2F)CC1 [Compound 9, N-(1-(2-fluorophenyl)cyclopropane-1-carbonyl)-O-(4-(5,6,7,8-tetrahydro-1,8-naphthyridin-2-yl)butyl)-L-homoserine] | ≥ 500 | < 50 | < 50 |
| Cc1ncnc(C)c1C1(C(=O)N[C@@H](CCOCCCCc2ccc3c(n2)NCCC3)C(=O)O)CC1 [Compound 41, N-(1-(4,6-dimethylpyrimidin-5-yl)cyclopropane-1-carbonyl)-O-(4-(5,6,7,8-tetrahydro-1,8-naphthyridin-2-yl)butyl)-L-homoserine] | ≥ 500 | 50 to 150 | < 50 |
| O=C(O)[C@H](CCOCCCCc1ccc2c(n1)NCCC2)NC(=O)C1(c2ncccc2C2CC2)CC1 [Compound 58, N-(1-(3-cyclopropylpyridin-2-yl)cyclopropane-1-carbonyl)-O-(4-(5,6,7,8-tetrahydro-1,8-naphthyridin-2-yl)butyl)-L-homoserine] | ≥ 500 | 150 to 250 | < 50 |
| O=C(O)[C@H](CCOCCCCc1ccc2c(n1)NCCC2)NC(=O)C1(c2ccc(F)cc2)CCOCC1 [Compound 85, N-(4-(4-fluorophenyl)tetrahydro-2H-pyran-4-carbonyl)-O-(4-(5,6,7,8-tetrahydro-1,8-naphthyridin-2-yl)butyl)-L-homoserine] | > 500 | 50 to 150 | < 50 |
| O=C(O)[C@H](CCOCCCCc1ccc2c(n1)NCCC2)NC(=O)C1(c2cccnc2C(F)F)CC1 [Compound 57, N-(1-(2-(difluoromethyl)pyridin-3-yl)cyclopropane-1-carbonyl)-O-(4-(5,6,7,8-tetrahydro-1,8-naphthyridin-2-yl)butyl)-L-homoserine] | ≥ 500 | 50 to 150 | < 50 |
| COCc1cccnc1C1(C(=O)N[C@@H](CCOCCCCc2ccc3c(n2)NCCC3)C(=O)O)CC1 [Compound 53, N-(1-(3-(methoxymethyl)pyridin-2-yl)cyclopropane-1-carbonyl)-O-(4-(5,6,7,8-tetrahydro-1,8-naphthyridin-2-yl)butyl)-L-homoserine] | ≥ 500 | 50 to 150 | 50 to 150 |
| O=C(O)[C@H](CCOCCCCc1ccc2c(n1)NCCC2)NC(=O)C1(c2ncccn2)CC1 [Compound 12, N-(1-(pyrimidin-2-yl)cyclopropane-1-carbonyl)-O-(4-(5,6,7,8-tetrahydro-1,8-naphthyridin-2-yl)butyl)-L-homoserine] | ≥ 500 | ≥ 500 | 50 to 150 |
| O=C(O)[C@H](CCOCCCCc1ccc2c(n1)NCCC2)NC(=O)C1(c2cncnc2C(F)(F)F)CC1 [Compound 48, O-(4-(5,6,7,8-tetrahydro-1,8-naphthyridin-2-yl)butyl)-N-(1-(4-(trifluoromethyl)pyrimidin-5-yl)cyclopropane-1-carbonyl)-L-homoserine] | ≥ 500 | < 50 | < 50 |
| N#Cc1ccccc1C1(C(=O)N[C@@H](CCOCCCCc2ccc3c(n2)NCCC3)C(=O)O)CC1 [Compound 45, N-(1-(2-cyanophenyl)cyclopropane-1-carbonyl)-O-(4-(5,6,7,8-tetrahydro-1,8-naphthyridin-2-yl)butyl)-L-homoserine] | ≥ 500 | 50 to 150 | < 50 |
| Cc1cccc(C2(C(=O)N[C@@H](CCOCCCCc3ccc4c(n3)NCCC4)C(=O)O)CC2)n1 [Compound 20, N-(1-(6-methylpyridin-2-yl)cyclopropane-1-carbonyl)-O-(4-(5,6,7,8-tetrahydro-1,8-naphthyridin-2-yl)butyl)-L-homoserine] | ≥ 500 | ≥ 500 | 250 to 500 |
| O=C(O)[C@H](CCOCCCCc1ccc2c(n1)NCCC2)NC(=O)C1(c2ccccc2)CC1 [Compound 10, N-(1-phenylcyclopropane-1-carbonyl)-O-(4-(5,6,7,8-tetrahydro-1,8-naphthyridin-2-yl)butyl)-L-homoserine] | ≥ 500 | 50 to 150 | < 50 |
| Cc1ccccc1C1(C(=O)N[C@@H](CCOCCCCc2ccc3c(n2)NCCC3)C(=O)O)CC1 [Compound 17, O-(4-(5,6,7,8-tetrahydro-1,8-naphthyridin-2-yl)butyl)-N-(1-(o-tolyl)cyclopropane-1-carbonyl)-L-homoserine] | ≥ 500 | < 50 | 50 to 150 |
| O=C(N[C@@H](CCOCCCCc1ccc2c(n1)NCCC2)C(=O)O)c1ccn(-c2ccccc2)n1 [Compound 97, N-(1-phenyl-1H-pyrazole-3-carbonyl)-O-(4-(5,6,7,8-tetrahydro-1,8-naphthyridin-2-yl)butyl)-L-homoserine] | 250 to 500 | 250 to 500 | 50 to 150 |
| COc1cccc(C#N)c1C1(C(=O)N[C@@H](CCOCCCCc2ccc3c(n2)NCCC3)C(=O)O)CC1 [Compound 56, N-(1-(2-cyano-6-methoxyphenyl)cyclopropane-1-carbonyl)-O-(4-(5,6,7,8-tetrahydro-1,8-naphthyridin-2-yl)butyl)-L-homoserine] | ≥ 500 | < 50 | 50 to 150 |
| Cc1ncccc1C1(C(=O)N[C@@H](CCOCCCCc2ccc3c(n2)NCCC3)C(=O)O)CC1 [Compound 13, N-(1-(2-methylpyridin-3-yl)cyclopropane-1-carbonyl)-O-(4-(5,6,7,8-tetrahydro-1,8-naphthyridin-2-yl)butyl)-L-homoserine] | ≥ 500 | < 50 | < 50 |
| O=C(O)[C@H](CCOCCCCc1ccc2c(n1)NCCC2)NC(=O)C1(c2cccc(Cl)c2)CCOCC1 [Compound 89, N-(4-(3-chlorophenyl)tetrahydro-2H-pyran-4-carbonyl)-O-(4-(5,6,7,8-tetrahydro-1,8-naphthyridin-2-yl)butyl)-L-homoserine] | > 500 | < 50 | < 50 |
| N#Cc1cc(F)ccc1C1(C(=O)N[C@@H](CCOCCCCc2ccc3c(n2)NCCC3)C(=O)O)CC1 [Compound 43, N-(1-(2-cyano-4-fluorophenyl)cyclopropane-1-carbonyl)-O-(4-(5,6,7,8-tetrahydro-1,8-naphthyridin-2-yl)butyl)-L-homoserine] | ≥ 500 | < 50 | < 50 |
| O=C(O)[C@H](CCOCCCCc1ccc2c(n1)NCCC2)NC(=O)C1(c2ncccc2OC(F)F)CC1 [Compound 38, N-(1-(3-(difluoromethoxy)pyridin-2-yl)cyclopropane-1-carbonyl)-O-(4-(5,6,7,8-tetrahydro-1,8-naphthyridin-2-yl)butyl)-L-homoserine] | ≥ 500 | < 50 | < 50 |
| O=C(O)[C@H](CCOCCCCc1ccc2c(n1)NCCC2)NC(=O)C1(c2cccc(F)c2)CCOCC1 [Compound 88, N-(4-(3-fluorophenyl)tetrahydro-2H-pyran-4-carbonyl)-O-(4-(5,6,7,8-tetrahydro-1,8-naphthyridin-2-yl)butyl)-L-homoserine] | > 500 | < 50 | < 50 |
| Cc1cncc(F)c1C1(C(=O)N[C@@H](CCOCCCCc2ccc3c(n2)NCCC3)C(=O)O)CC1 [Compound 47, N-(1-(3-fluoro-5-methylpyridin-4-yl)cyclopropane-1-carbonyl)-O-(4-(5,6,7,8-tetrahydro-1,8-naphthyridin-2-yl)butyl)-L-homoserine] | 250 to 500 | < 50 | < 50 |
